# Laboratory results taken from US20260285850A1, “SUBSTITUTED OXAZOLIDINONES AND IMIDAZOLINONES AS HERBICIDES” (FMC CORPORATION, priority 2023, published 2026).
# Key:
# Format in all cases: in vivo
# [1] = test system: barnyardgrass (Echinochloa crus-galli); assay: Test A preemergence soil spray, visual injury rating 0-100; conditions: 10 days
# Summary of the method: (§1)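 Rating: visual, day 10, untreated plants as reference, 0 no effect to 100 full control. Plants were in loam-sand and were treated either preemergence via directed soil spray or postemergence at the one- to two-leaf stage.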
# [2] = test system: blackgrass (Alopecurus myosuroides); assay: as above; conditions: 10 days
# Summary of the method: as §1
# corn (Zea mays) [3] = assay: as above; conditions: 10 days
# Summary of the method: as §1
# [4] = test system: green foxtail (Setaria viridis); assay: as above; conditions: 10 days
# Summary of the method: as §1
# kochia (Bassia scoparia) [5] = assay: as above; conditions: 10 days
# Summary of the method: as §1
# [6] = test system: oat, wild (wild oat, Avena fatua); assay: as above; conditions: 10 days
# Summary of the method: as §1
# [7] = test system: palmer (palmer amaranth, palmer pigweed, Amaranthus palmeri); assay: as above; conditions: 10 days
# Summary of the method: as §1
# [8] = test system: ragweed (common ragweed, Ambrosia artemisiifolia); assay: as above; conditions: 10 days
# Summary of the method: as §1
# [9] = test system: ryegrass, Italian (italian ryegrass, Lolium multiflorum); assay: as above; conditions: 10 days
# Summary of the method: as §1
# soybean (Glycine max) [10] = assay: as above; conditions: 10 days
# Summary of the method: as §1
# [11] = test system: wheat (Triticum aestivum); assay: as above; conditions: 10 days
# Summary of the method: as §1
# [12] = test system: barnyardgrass (Echinochloa crus-galli); assay: Test A postemergence application, visual injury rating 0-100
# Summary of the method: as §1
# [13] = test system: blackgrass (Alopecurus myosuroides); assay: as above
# Summary of the method: as §1
# corn (Zea mays) [14] = assay: as above
# Summary of the method: as §1
# [15] = test system: galium (catchweed bedstraw, Galium aparine); assay: as above
# Summary of the method: as §1
# [16] = test system: green foxtail (Setaria viridis); assay: as above
# Summary of the method: as §1
# [17] = test system: horseweed (Erigeron canadensis); assay: as above
# Summary of the method: as §1
# kochia (Bassia scoparia) [18] = assay: as above
# Summary of the method: as §1
# [19] = test system: oat, wild (wild oat, Avena fatua); assay: as above
# Summary of the method: as §1
# [20] = test system: palmer (palmer amaranth, palmer pigweed, Amaranthus palmeri); assay: as above
# Summary of the method: as §1
# [21] = test system: ragweed (common ragweed, Ambrosia artemisiifolia); assay: as above
# Summary of the method: as §1
# [22] = test system: ryegrass, Italian (italian ryegrass, Lolium multiflorum); assay: as above
# Summary of the method: as §1
# soybean (Glycine max) [23] = assay: as above
# Summary of the method: as §1
# [24] = test system: wheat (Triticum aestivum); assay: as above
# Summary of the method: as §1
# [25] = test system: barnyardgrass (Echinochloa crusgalli); assay: Test B flooded paddy test, visual plant response rating 0-100; conditions: 250 g ai/ha, Flood, applied to paddy water, evaluated after 13 days
# Summary of the method: (§2)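 Plants were grown to the 2-leaf stage, then pots were flooded to 3 cm above the soil and compound was applied directly to the paddy water, with that depth kept throughout.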
# [26] = test system: ducksalad (Heteranthera limosa); assay: as above; conditions: 250 g ai/ha, Flood, applied to paddy water, evaluated after 13 days
# Summary of the method: as §2
# rice (Oryza sativa) = assay: as above; conditions: 250 g ai/ha, Flood, applied to paddy water, evaluated after 13 days
# Summary of the method: as §2
# [27] = test system: sedge, umbrella (small-flower umbrella sedge, Cyperus difformis); assay: as above; conditions: 250 g ai/ha, Flood, applied to paddy water, evaluated after 13 days
# Summary of the method: as §2
# [28] = 62 g ai/ha, 0 = no effect, 100 = complete control
# [29] = 62 g ai/ha, postemergence, 10 days, 0 = no effect, 100 = complete control
# [30] = Postemergence, 16 g ai/ha, greenhouse 10 days, 0 no effect, 100 complete control
smiles,measurement,setting,value
CC(C)OC(=O)C1=CCC(NC(=O)C2(C)CN(c3cc(F)cc(F)c3)C(=O)O2)C1 (stereo not shown) [Compound 99],Barnyardgrass plant response rating,"[1]; 16 g ai/ha, 0 to 100 scale",0
same,Barnyardgrass plant response rating (0-100),[1]; [28],0
same,Blackgrass plant response rating,"[2]; 16 g ai/ha, 0 to 100 scale",0
same,Blackgrass plant response rating (0-100),[2]; [28],0
same,Corn plant response rating,"corn (Zea mays) [3]; 16 g ai/ha, 0 to 100 scale",0
same,Corn plant response rating (0-100),corn (Zea mays) [3]; [28],0
same,"Foxtail, Green plant response rating","[4]; 16 g ai/ha, 0 to 100 scale",0
same,"Foxtail, Green plant response rating (0-100)",[4]; [28],40
same,Kochia plant response rating,"kochia (Bassia scoparia) [5]; 16 g ai/ha, 0 to 100 scale",0
same,Kochia plant response rating (0-100),kochia (Bassia scoparia) [5]; [28],0
same,"Oat, Wild plant response rating","[6]; 16 g ai/ha, 0 to 100 scale",20
same,"Oat, Wild plant response rating (0-100)",[6]; [28],50
same,"Pigweed, Palmer plant response rating","[7]; 16 g ai/ha, 0 to 100 scale",0
same,"Pigweed, Palmer plant response rating (0-100)",[7]; [28],0
same,Ragweed plant response rating,"[8]; 16 g ai/ha, 0 to 100 scale",0
same,Ragweed plant response rating (0-100),[8]; [28],0
same,"Ryegrass, Italian plant response rating","[9]; 16 g ai/ha, 0 to 100 scale",0
same,"Ryegrass, Italian plant response rating (0-100)",[9]; [28],0
same,Soybean plant response rating,"soybean (Glycine max) [10]; 16 g ai/ha, 0 to 100 scale",0
same,Soybean plant response rating (0-100),soybean (Glycine max) [10]; [28],0
same,Wheat plant response rating,"[11]; 16 g ai/ha, 0 to 100 scale",0
same,Wheat plant response rating (0-100),[11]; [28],0
same,Barnyardgrass plant response rating (0-100),[12]; [29],0
same,Barnyardgrass plant response rating (0 to 100 scale),[12]; [30],0
same,Blackgrass plant response rating (0-100),[13]; [29],0
same,Blackgrass plant response rating (0 to 100 scale),[13]; [30],0
same,Corn plant response rating (0-100),corn (Zea mays) [14]; [29],0
same,Corn plant response rating (0 to 100 scale),corn (Zea mays) [14]; [30],0
same,Galium plant response rating (0-100),[15]; [29],20
same,Galium plant response rating (0 to 100 scale),[15]; [30],20
same,"Foxtail, Green plant response rating (0-100)",[16]; [29],0
same,"Foxtail, Green plant response rating (0 to 100 scale)",[16]; [30],0
same,Horseweed plant response rating (0-100),[17]; [29],0
same,Horseweed plant response rating (0 to 100 scale),[17]; [30],0
same,Kochia plant response rating (0-100),kochia (Bassia scoparia) [18]; [29],0
same,Kochia plant response rating (0 to 100 scale),kochia (Bassia scoparia) [18]; [30],0
same,"Oat, Wild plant response rating (0-100)",[19]; [29],0
same,"Oat, Wild plant response rating (0 to 100 scale)",[19]; [30],0
same,"Pigweed, Palmer plant response rating (0-100)",[20]; [29],0
same,"Pigweed, Palmer plant response rating (0 to 100 scale)",[20]; [30],0
same,Ragweed plant response rating (0-100),[21]; [29],0
same,Ragweed plant response rating (0 to 100 scale),[21]; [30],0
same,"Ryegrass, Italian plant response rating (0-100)",[22]; [29],0
same,"Ryegrass, Italian plant response rating (0 to 100 scale)",[22]; [30],0
same,Soybean plant response rating (0-100),soybean (Glycine max) [23]; [29],20
same,Soybean plant response rating (0 to 100 scale),soybean (Glycine max) [23]; [30],0
same,Wheat plant response rating (0-100),[24]; [29],10
same,Wheat plant response rating (0 to 100 scale),[24]; [30],0
same,"Plant response rating, Barnyardgrass (0 to 100 scale, 0 is no effect and 100 is complete control)",[25],0
same,"Plant response rating, Ducksalad (0 to 100 scale, 0 is no effect and 100 is complete control)",[26],0
same,"Plant response rating, Rice (0 to 100 scale, 0 is no effect and 100 is complete control)",rice (Oryza sativa),0
same,"Plant response rating, Sedge, Umbrella (0 to 100 scale, 0 is no effect and 100 is complete control)",[27],0
